# Source: the supplement of paper PMC9663587
# Tests used:
# [1] = compound: COc1cccc(OCCCN)c1-c1cc(Nc2cnc(C#N)cn2)n[nH]1; experiment: GR value, 72 h; higher = faster growth (1 = untreated, <0 = killing);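 also: breast cancer and non-malignant breast epithelial lines, nine half-log doses, viable cells counted by Hoechst and LIVE/DEAD dye imaging versus time-zero plates and DMSO controls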
# Taselisib/GDC0032 = compound: Cc1nc(-c2cn3c(n2)-c2ccc(-c4cnn(C(C)(C)C(N)=O)c4)cc2OCC3)n(C(C)C)n1 [Taselisib/GDC0032]; experiment: as above
# senexin b = compound: CN1CCN(C(=O)c2ccc3cc(CCNc4ncnc5ccc(C#N)cc45)ccc3c2)CC1 [senexin b]; experiment: as above
# [2] = compound: CCCCOc1c(C(=O)c2c(F)cc(C)cc2F)c[nH]c2nncc1-2; experiment: as above
# Torin2 = compound: C1=CC(=CC(=C1)N2C(=O)C=CC3=CN=C4C=CC(=CC4=C32)C5=CN=C(C=C5)N)C(F)(F)F [Torin2]; experiment: as above
# Rucaparib = compound: CNCc1ccc(-c2[nH]c3cc(F)cc4c3c2CCNC4=O)cc1 [Rucaparib]; experiment: as above
# [3] = compound: COc1cccc(OCCCN)c1-c1cc(Nc2cnc(C#N)cn2)n[nH]1
# SHP099 = compound: CC1(CCN(CC1)C2=CN=C(C(=N2)N)C3=C(C(=CC=C3)Cl)Cl)N [SHP099]
# [4] = compound: CCN1CCN(Cc2ccc(Nc3ncc(F)c(-c4cc(F)c5nc(C)n(C(C)C)c5c4)n3)nc2)CC1
# Everolimus = compound: CO[C@H]1C[C@@H]2CC[C@@H](C)[C@@](O)(O2)C(=O)C(=O)N2CCCC[C@H]2C(=O)O[C@H]([C@H](C)C[C@@H]2CC[C@@H](OCCO)[C@H](OC)C2)CC(=O)[C@H](C)/C=C(\C)[C@@H](O)[C@@H](OC)C(=O)[C@H](C)C[C@H](C)/C=C/C=C/C=C/1C [Everolimus]
# AZD6738 = compound: C[C@@H]1COCCN1c1cc(C2([S@](C)(=N)=O)CC2)nc(-c2cc[nH]c3nccc2-3)n1 [AZD6738]
# FMF-03-145-1 = compound: CCC(=O)Nc1ccc(C(=O)Nc2ccc(Nc3ncc4c(n3)N(C)c3ccc(C)cc3C(=O)N4C)cc2)cc1 [FMF-03-145-1]
# YKL-5-124 = compound: C=CC(=O)Nc1ccc(C(=O)Nc2[nH]nc3c2CN(C(=O)N[C@H](CN(C)C)c2ccccc2)C3(C)C)cc1 [YKL-5-124]
# Vorinostat = compound: O=C(CCCCCCC(=O)Nc1ccccc1)NO [Vorinostat]
# AZD5363 = compound: NC1(C(=O)N[C@@H](CCO)c2ccc(Cl)cc2)CCN(c2nc[nH]c3nccc2-3)CC1 [AZD5363]
# 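For GR50, 72 h in this document: breast cancer and non-malignant breast epithelial cell lines, Deep Dye Drop or Dye Drop imaging, nine half-log doses, GR normalized to time-zero plates and DMSO-only controls.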
cell line,measurement,setting,value
AU565,GR value,[1]; 10 pM,0.889 GR
same,GR value,[1]; 31.6 pM,0.97 GR
same,GR value,[1]; 0.0001 µM,1.1 GR
same,GR value,[1]; 0.0003162 µM,1.09 GR
same,GR value,[1]; 0.001 µM,0.219 GR
same,GR value,[1]; 0.003162 µM,0.112 GR
same,GR value,[1]; 0.01 µM,0.0322 GR
same,GR value,[1]; 0.03162 µM,0.0412 GR
same,GR value,[1]; 0.1 µM,0.077 GR
same,GR value,Taselisib/GDC0032; 0.001 µM,0.728 GR
same,GR value,Taselisib/GDC0032; 0.003162 µM,0.58 GR
same,GR value,Taselisib/GDC0032; 0.01 µM,0.208 GR
same,GR value,Taselisib/GDC0032; 0.03162 µM,-0.0424 GR
same,GR value,Taselisib/GDC0032; 0.1 µM,-0.111 GR
same,GR value,Taselisib/GDC0032; 0.3162 µM,-0.171 GR
same,GR value,Taselisib/GDC0032; 1 µM,-0.209 GR
same,GR value,Taselisib/GDC0032; 3.162 µM,-0.225 GR
same,GR value,Taselisib/GDC0032; 10 µM,-0.538 GR
same,GR value,senexin b; 0.001 µM,1.02 GR
same,GR value,senexin b; 0.003162 µM,0.919 GR
same,GR value,senexin b; 0.01 µM,0.88 GR
same,GR value,senexin b; 0.03162 µM,1.05 GR
same,GR value,senexin b; 0.1 µM,0.897 GR
same,GR value,senexin b; 0.3162 µM,0.904 GR
same,GR value,senexin b; 1 µM,0.786 GR
same,GR value,senexin b; 3.162 µM,0.768 GR
same,GR value,senexin b; 10 µM,0.913 GR
same,GR value,[2]; 0.001 µM,0.763 GR
same,GR value,[2]; 0.003162 µM,0.828 GR
same,GR value,[2]; 0.01 µM,0.656 GR
same,GR value,[2]; 0.03162 µM,0.622 GR
same,GR value,[2]; 0.1 µM,0.545 GR
same,GR value,[2]; 0.3162 µM,0.489 GR
same,GR value,[2]; 1 µM,0.372 GR
same,GR value,[2]; 3.162 µM,0.0322 GR
same,GR value,[2]; 10 µM,-0.151 GR
same,GR value,Torin2; 0.0001 µM,1.06 GR
same,GR value,Torin2; 0.0003162 µM,1.02 GR
same,GR value,Torin2; 0.001 µM,0.884 GR
same,GR value,Torin2; 0.003162 µM,0.698 GR
same,GR value,Torin2; 0.01 µM,0.222 GR
same,GR value,Torin2; 0.03162 µM,-0.0323 GR
same,GR value,Torin2; 0.1 µM,-0.152 GR
same,GR value,Torin2; 0.3162 µM,-0.239 GR
same,GR value,Torin2; 1 µM,-0.395 GR
same,GR value,Rucaparib; 0.001 µM,0.952 GR
same,GR value,Rucaparib; 0.003162 µM,1.09 GR
same,GR value,Rucaparib; 0.01 µM,0.804 GR
same,GR value,Rucaparib; 0.03162 µM,0.916 GR
same,GR value,Rucaparib; 0.1 µM,0.925 GR
same,GR value,Rucaparib; 0.3162 µM,0.845 GR
same,GR value,Rucaparib; 1 µM,1.01 GR
same,GR value,Rucaparib; 3.162 µM,0.932 GR
same,GR value,Rucaparib; 10 µM,0.714 GR
same,"GR50, 72 h",[3],0.000768 µM
same,"GR50, 72 h",SHP099,> 10 µM
same,"GR50, 72 h",[4],0.0308 µM
same,"GR50, 72 h",Everolimus,0.00185 µM
same,"GR50, 72 h",AZD6738,8.56 µM
same,"GR50, 72 h",FMF-03-145-1,0.00474 µM
same,"GR50, 72 h",YKL-5-124,< 0.001 µM
same,"GR50, 72 h",Vorinostat,1.07 µM
same,"GR50, 72 h",AZD5363,5.83 µM
